# According to PMC3557921 (Journal of Medicinal Chemistry, 2012):
# Molecular target: T1, β-catenin (armadillo-repeat region of human β-catenin) (Homo sapiens, UniProt P35222)
# T1 sequence (P35222 134-671 limits assumed): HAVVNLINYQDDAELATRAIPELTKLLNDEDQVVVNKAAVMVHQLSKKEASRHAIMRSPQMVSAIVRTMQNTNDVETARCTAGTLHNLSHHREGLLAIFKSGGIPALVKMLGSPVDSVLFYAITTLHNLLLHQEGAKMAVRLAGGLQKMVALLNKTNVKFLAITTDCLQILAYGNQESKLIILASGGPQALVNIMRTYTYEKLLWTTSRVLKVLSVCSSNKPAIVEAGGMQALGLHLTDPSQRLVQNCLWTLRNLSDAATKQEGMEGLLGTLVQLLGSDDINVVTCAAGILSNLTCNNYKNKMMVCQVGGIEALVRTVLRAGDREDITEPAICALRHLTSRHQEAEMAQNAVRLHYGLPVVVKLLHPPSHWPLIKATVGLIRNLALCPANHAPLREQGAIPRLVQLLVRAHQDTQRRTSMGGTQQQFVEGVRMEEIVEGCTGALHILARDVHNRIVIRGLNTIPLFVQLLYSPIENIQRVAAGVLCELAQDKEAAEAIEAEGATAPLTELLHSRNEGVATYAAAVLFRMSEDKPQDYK
# Assay: 1D 1H STD-NMR
# Type: binding
# Conditions: 30 μM protein, 1 mM ligand; 100 mM Tris, 150 mM NaCl, 2 mM DTT, pH 7.4, 25 °C
structure (smiles),measurement,value
O=C1OC2(c3ccccc31)c1cc(Br)c(O)c(Br)c1Oc1c2cc(Br)c(O)c1Br [eosin Y],1D 1H STD-NMR,predicted ligands fluorescein and eosin Y bind to the protein
